# From patent publication US20220031738A1, “IRON FORMULATIONS FOR TOPICAL ADMINISTRATION AND METHODS OF TREATMENT OF IRON DEFICIENCY” (DYVE BIOSCIENCES, INC., priority 2018, published 2022)
# What was measured:
# Type in all cases: in vivo
# [1] = system: Anemic pregnant human patients; assay: Topical vs oral vs intravenous iron for anemia in pregnancy
# Protocol: In this experiment, iron (in the form of ferrous sulfate) in formulations of the invention was tested for its ability to treat anemia in pregnant patients, and compared to orally or intravenously delivered iron supplementation.
# In vivo tests were performed as follows: Anemic pregnant human patients were treated with either topical, oral or intravenous iron supplementation during 14 to 34 weeks of pregnancy. Trial design was built to assess these primary outcomes: haemoglobin and serum ferritin levels. Treatment groups randomized as follows: • a. Oral iron supplement group (200 mg of ferrous fumarate per day) • b. Intravenous iron supplement group (200 mg of iron sucrose was administered in 100 ml 0.9% sodium chloride per day) • c. Topical iron supplement group (3.34 g of topical formulation applied per day) Formulations detailed in Table 3 below
# [2] = system: human iron-depleted, nonanemic women; assay: Topical vs oral iron to improve endurance after training in iron-depleted, nonanemic women; conditions: oral = ferrous sulfate 100 mg per day
# Protocol: In this experiment, iron (in the form of ferrous sulfate) in formulations of the invention was tested for its ability to help improve endurance after training in iron-depleted, nonanemic women and compared to orally delivered iron supplementation.
# In vivo tests were performed as follows: human iron-depleted (serum ferritin <16 μg/l), nonanemic (Hb >12 g/dl) women (18-33 yr old) were treated with either topical or oral iron supplementation for 6 weeks. Subjects trained for 30 min/day, 5 days/wk at 75-85% of maximum heart rate for the final 4 wk of the study. Trial design was built to assess this primary outcome: change in 15 km time from baseline to […]. Treatment groups randomized as follows: • a. Control group: oral placebo • b. Oral iron supplement group (100 mg of ferrous sulfate per day) • c. Topical iron supplement group (1.67 g of topical formulation applied daily) Formulations detailed in Table 6 below
# [3] = system: Anemic human patients with progressive renal insufficiency; assay: Topical vs oral vs intravenous iron supplementation in anemic patients with progressive renal insufficiency treated with erythropoietin
# Protocol: In this experiment, iron (in the form of ferrous sulfate) in formulations of the invention was tested for its ability to treat anemia in patients with progressive renal insufficiency, and compared to orally or intravenously delivered iron supplementation.
# In vivo tests were performed as follows: Anemic human patients with progressive renal insufficiency were treated with either topical, oral or intravenous iron supplementation and evaluated at baseline, 3 months and 6 months. Trial design was built to assess these primary outcomes: hemoglobin response, serum ferritin levels, changes in red cell hypochromasia, and incidence of adverse events. Treatment groups randomized as follows: • Oral iron supplement group (ferrous sulphate 200 mg tds) • Intravenous iron supplement group (300 mg iron sucrose monthly) • Topical iron supplement group (3.34 g of topical formulation applied tds) Formulations detailed below in Table 1 • In all groups Erythropoietin (rHuEpo) treatment was simultaneously commenced.
# [4] = system: Anemic human patients with progressive renal insufficiency; assay: Topical vs oral vs intravenous iron for iron deficiency in non-hemodialysis-dependent patients with chronic kidney disease; conditions: oral = ferrous sulphate 325 mg thrice daily; intravenous ferric carboxymaltose; topical = 5.42 g Table 2 formulation tds
# Protocol: In this experiment, iron (in the form of ferrous sulfate) in formulations of the invention was tested for its ability to treat iron deficiency in non-hemodialysis dependent patients with chronic kidney disease, and compared to orally or intravenously delivered iron supplementation.
# In vivo tests were performed as follows: Anemic human patients with progressive renal insufficiency were treated with either topical, oral or intravenous iron supplementation. Trial design was built to assess these primary outcomes: hemoglobin response, and incidence of adverse events. Treatment groups randomized as follows: • a. Oral iron supplement group (ferrous sulphate 325 mg thrice daily for a total of 195 mg elemental iron daily) • b. Intravenous iron supplement group (intravenous ferric carboxymaltose 1000 mg over 15 min (with up to two additional doses of 500 mg at 2-week intervals)) • c. Topical iron supplement group (5.42 g of topical formulation applied tds) Formulations detailed in Table 2 below.
# [5] = system: human IBD patients with anemia; assay: Topical vs oral vs intravenous iron for anemia in inflammatory bowel disease
# Protocol: In this experiment, iron (in the form of ferrous sulfate) in formulations of the invention was tested for its ability to help treat anemia in inflammatory bowel disease (IBD) patients and compared to orally or intravenously delivered iron supplementation.
# In vivo tests were performed as follows: human IBD patients with anemia were treated with either topical, oral or intravenous iron supplementation for 12 weeks. Trial design was built to assess this primary outcome: change in hemoglobin (Hb) from baseline to week 12. Treatment groups randomized as follows: • a. Oral iron supplement group (FeSulf containing 100 mg ferrous iron (II). Patients received one capsule b.i.d. for 12 wk) • b. Intravenous iron supplement group (ferric carboxymaltose (FeCarb) 50 mg ferric iron (III) per milliliter in water with individual patient dosage calculated according to the formula of Ganzoni) • c. Topical iron supplement group (1.67 g of topical formulation applied b.i.d.) Formulations detailed in Table 5 below
# [6] = system: human patients with chemotherapy-related anemia; assay: Topical vs oral vs intravenous iron in anemic cancer patients receiving darbepoetin alfa; conditions: 8 weeks, with darbepoetin alfa 500 mcg every 3 weeks; oral = sucrosomial iron 30 mg daily; IV = ferric gluconate 125 mg weekly; topical = 0.50 g Table 4 formulation daily
# Protocol: In this experiment, iron (in the form of ferrous sulfate) in formulations of the invention was tested for its ability to help treat chemotherapy-induced anemia in cancer patients when combined with erythropoiesis-stimulating agents (ESAs), and compared to orally or intravenously delivered iron supplementation. […] Trial design was built to assess this primary outcome: Hb response as defined as the Hb increase ≥2 g/dL from baseline or the attainment Hb ≥12 g/dL. Treatment groups randomized as follows: • a. Oral iron supplement group (sucrosomial iron 30 mg daily) • b. […] Topical iron supplement group (0.50 g of topical formulation applied daily) Formulations detailed in Table 4 below
molecule,measurement,setting,value
O=C([O-])/C=C/C(=O)[O-].[Fe+2] [ferrous fumarate],participants with an improvement in hemoglobin more than 20 g/L,[1]; same arms as E9,11%
O=S(=O)([O-])[O-].[Fe+2] [ferrous sulphate],decrease in 15-km time vs the placebo control group,[2]; topical = 1.67 g Table 6 formulation daily,statistically significantly greater
same,"decrease in 15-km time, oral versus transdermal",[2]; transdermal = 1.67 g Table 6 formulation daily,no statistical difference
same,"allergic reactions reported, share of patients","[3]; oral = ferrous sulphate, intravenous = iron sucrose, transdermal = Table 1 formulation",none
ferric carboxymaltose,treatment-related adverse events,[4],2.7%
same,median Hb after treatment (week 12),"[5]; 12 weeks, same arms as E16",12.3 g/dL
same,median Hb at baseline,"[5]; before treatment, oral = FeSulf 100 mg ferrous iron b.i.d., IV = ferric carboxymaltose (Ganzoni dose), topical = 1.67 g Table 5 formulation b.i.d.",8.7 g/dL
ferric gluconate,patients achieving an erythropoietic (Hb) response: Hb increase ≥2 g/dL from baseline or Hb ≥12 g/dL,[6],Seventy one
iron sucrose,change in hemoglobin,"[1]; pregnant women, 14 to 34 weeks of pregnancy, oral = ferrous fumarate 200 mg per day, intravenous = iron sucrose 200 mg per day, topical = 3.34 g Table 3 formulation per day",22 ± 11.5 g/L
same,patients with increase in ferritin level between 51 to 100 ng/ml,[1]; same arms as E9,48%
same,serum ferritin levels versus oral,"[3]; comparator oral ferrous sulphate 200 mg tds, intravenous = iron sucrose 300 mg monthly, topical = 3.34 g Table 1 formulation tds",statistical significantly higher
same,"allergic reactions reported, share of patients","[3]; human, in vivo",10%
same,"serum ferritin levels, topical versus intravenous","[3]; intravenous = iron sucrose 300 mg monthly, topical = 3.34 g Table 1 formulation tds",not statistically different
